Earlier results, collected in patent US8309061B2, “Formulations and methods for treating rhinosinusitis” (Dey Pharma, L.P., priority 2003, dated 2012).

CCC(=O)O[C@]1(C(=O)SCF)[C@H](C)C[C@H]2[C@@H]3C[C@H](F)C4=CC(=O)C=C[C@]4(C)[C@@]3(F)[C@@H](O)C[C@@]21C [Fluticasone propionate, S-(fluromethyl)6α,9-difluoro-11β-17-dihydroxy-16α-methyl-3-oxoandrosta-1,4-diene-17β-carbothioate, 17-propionate]
solubility in dimethyl sulfoxide and dimethylformamide (dimethyl sulfoxide and dimethylformamide): freely soluble | solubility in methanol and 95% ethanol (methanol and 95% ethanol): slightly soluble | solubility in water (water): practically insoluble
